Values quoted from earlier work in US20100152180A1, “4-oxo-4,5-dihydropyrrolo[1,2-A)quinoxaline derivatives as inhibitors of poly(ADP-ribose) polymerase (PARP)” (priority 2006, published 2010).

System: ischemia and reperfusion of the heart or skeletal muscle
Conditions: rabbits

Structure (SMILES) | reduction in infarct size (single injection 1 mg/kg) | reduction in infarct size in the heart (single injection 10 mg/kg, one minute before occlusion or one minute before reperfusion)
Oc1cccc2c(O)nccc12 [1,5-dihydroxyisoquinoline] | 38-48% | 
NC(=O)c1cccc(N)c1 [3-amino-benzamide] |  | 32-42%
